The nature of assay [1]: Antagonist activity at PAR4 in human platelet rich plasma assessed as inhibition of gamma-thrombin-induced platelet aggregation preincubated for 5 mins followed by gamma-thrombin addition and measured in presence of recombinant hirudin.
Assay [2] can be described thus: Antagonist activity at PAR4 in human washed platelets assessed as inhibition of gamma-thrombin-induced platelet aggregation preincubated for 5 mins followed by gamma-thrombin addition and measured every 50 secs for up to 15 mins starting from 10 secs post gamma-thrombin addition in presence of recombinant hirudin.

Structures are written as SMILES. Bounds are passed on as bounds.

What is called IC50 is the concentration that inhibits the measured activity by half. For the compound `COc1cc(OCc2ccccc2C)c2cc(-c3cn4nc(OC)sc4n3)oc2c1`, the IC50 in assay [1] amounted to 3600 nM.

In the case of `COc1cccc(COc2cc(OC)cc3oc(-c4cn5nc(OC)sc5n4)cc23)c1`, the IC50 in assay [1] is more than 1000 nM. Turning to `CS(=O)(=O)c1nn2cc(-c3cc4ccccc4o3)nc2s1`, the IC50 in assay [2] is more than 30000 nM. As for `COc1nn2cc(-c3cc4ccc(OCc5ccccc5)cc4o3)nc2s1` [US9862730, Example 104], the values for the IC50 in assay [2] and in assay [1] were 1800 nM and more than 30000 nM, respectively. `COc1nn2cc(-c3cc4c(OC)ccc(OC)c4o3)nc2s1` [US9862730, Example 103]: the IC50 in assay [2] amounted to 2100 nM; in assay [1], 10000 nM. Take `c1ccc2oc(-c3cn4nc(C5CC5)sc4n3)cc2c1` [US9862730, Example 63]: the IC50 in assay [2] was more than 30000 nM. On to `COc1cc(OCc2ccc(Cl)cc2)c2cc(-c3cn4nc(OC)sc4n3)oc2c1`, for which the IC50 in assay [1] is more than 1000 nM.

In the case of `COc1ccc2oc(-c3cn4nc(OC)sc4n3)cc2c1` [US9862730, Example 93], the concentration for half-maximal inhibition (IC50) in assay [2] and in assay [1] was more than 30000 nM throughout.

With `COc1ccc(COc2cc(OC)cc3oc(-c4cn5nc(OC)sc5n4)cc23)cc1`, the IC50 in assay [1] was more than 3000 nM. `COc1cc(OCc2cccc(CO)c2)c2cc(-c3cn4nc(OC)sc4n3)oc2c1`: the half-maximal inhibitory concentration (IC50) in assay [1] is more than 1000 nM. Consider `CC(C)Oc1nn2cc(-c3cc4ccccc4o3)nc2s1`, for which, in assay [2], the 50% inhibitory concentration (IC50) is more than 30000 nM. `COc1cc(OCCOc2ccccc2)c2cc(-c3cn4nc(OC)sc4n3)oc2c1`: the IC50 in assay [1] was determined as 480 nM. On the same count and under the same terms, with `COc1cc(OCc2ccccc2Cl)c2cc(-c3cn4nc(OC)sc4n3)oc2c1` the figure was more than 3000 nM. Same read-out and setting: with `COc1cc(OCc2ccccc2C(F)(F)F)c2cc(-c3cn4nc(OC)sc4n3)oc2c1` the figure was more than 1000 nM. Consider `CSc1nn2cc(-c3cc4ccccc4o3)nc2s1` [US9862730, Example 1], for which the IC50 in assay [2] came to 270 nM. In the case of `COc1cc(OCc2cccc(O)c2)c2cc(-c3cn4nc(OC)sc4n3)oc2c1`, in assay [1], the IC50 came out at 2700 nM.

For the compound `COc1cc(OCc2cccc(Oc3ccccc3)c2)c2cc(-c3cn4nc(OC)sc4n3)oc2c1`, the IC50 in assay [1] was found to be 390 nM. With `CNc1nn2cc(-c3cc4ccccc4o3)nc2s1` [US9862730, Example 69], in assay [2], the IC50 was more than 30000 nM. In the case of `COc1nn2cc(-c3cc4c(OC)cccc4o3)nc2s1` [US9862730, Example 11], the IC50 in assay [2] stood at 350 nM; in assay [1], 1300 nM. Turning to `COc1cc(OCc2cccc(COc3ccccc3)c2)c2cc(-c3cn4nc(OC)sc4n3)oc2c1`, the IC50 in assay [1] is 600 nM. Still for that read-out and setting: the result for `COc1cc(OCc2cccc(Sc3ccccc3)c2)c2cc(-c3cn4nc(OC)sc4n3)oc2c1` reads 410 nM. For `CCc1nn2cc(-c3cc4ccccc4o3)nc2s1` [US9862730, Example 47], the IC50 in assay [2] turned out to be 2400 nM.

With `COc1nn2cc(-c3cc4ccccc4o3)nc2s1`, the 50% inhibitory concentration (IC50) in assay [2] is 240 nM; in assay [1], 15000 nM. As for `Cc1nn2cc(-c3cc4ccccc4o3)nc2s1` [US9862730, Example 41], the concentration for half-maximal inhibition (IC50) in assay [2] was more than 30000 nM. On to `COc1cc(OCc2ccc(OCc3ccccc3)cc2)c2cc(-c3cn4nc(OC)sc4n3)oc2c1`, for which the 50% inhibitory concentration (IC50) in assay [1] worked out at 550 nM. Still for that read-out and setting: the result for `COc1cc(OCc2cccc(Cl)c2)c2cc(-c3cn4nc(OC)sc4n3)oc2c1` reads 680 nM; that for `COc1cc(OCc2ccccc2OC)c2cc(-c3cn4nc(OC)sc4n3)oc2c1`, more than 1000 nM.

`COc1ccc2cc(-c3cn4nc(OC)sc4n3)oc2c1` [US9862730, Example 71]: the IC50 in assay [2] is 120 nM; in assay [1], 480 nM. The matching figures for `COc1nn2cc(-c3cc4cccc(OC)c4o3)nc2s1` [US9862730, Example 9]: 240 nM and 3500 nM. With `COc1nn2cc(-c3cc4ccc(OC)c(OC)c4o3)nc2s1` [US9862730, Example 10], the IC50 in assay [2] and in assay [1] was more than 30000 nM throughout. Consider `COc1cc(OCc2cccc(CCc3ccccc3)c2)c2cc(-c3cn4nc(OC)sc4n3)oc2c1`, for which the concentration for half-maximal inhibition (IC50) in assay [1] is 1200 nM.

As for `CCOc1nn2cc(-c3cc4ccccc4o3)nc2s1`, the IC50 in assay [2] came to 2100 nM. With `COc1cc(OCc2ccc(C(F)(F)F)cc2)c2cc(-c3cn4nc(OC)sc4n3)oc2c1`, the half-inhibitory concentration (IC50) in assay [1] stood at 1800 nM. Same read-out and setting: with `COc1cc(OCCOCc2ccccc2)c2cc(-c3cn4nc(OC)sc4n3)oc2c1` the figure was 500 nM. On to `COc1nn2cc(-c3cc4c(OCc5ccccc5)cccc4o3)nc2s1` [US9862730, Example 210], for which the IC50 came to 3100 nM in assay [2] and 4100 nM in assay [1]. `COc1cc(OCc2cccc(C(F)(F)F)c2)c2cc(-c3cn4nc(OC)sc4n3)oc2c1`: in assay [1], the IC50 was found to be 440 nM. Take `COc1cc(OC)c2cc(-c3cn4nc(OC)sc4n3)oc2c1` [US9862730, Example 73]: the IC50 in assay [2] amounted to 74 nM; in assay [1] it was 530 nM. As for `COc1cc(OCCc2ccccc2)c2cc(-c3cn4nc(OC)sc4n3)oc2c1`, the IC50 in assay [1] is 780 nM. The same measure, in the same setting: the result for `COc1cc(OCc2ccccc2OCc2ccccc2)c2cc(-c3cn4nc(OC)sc4n3)oc2c1` reads 2500 nM. Consider `COc1cc(OCc2cccc(C#N)c2)c2cc(-c3cn4nc(OC)sc4n3)oc2c1`, for which the IC50 in assay [1] worked out at 820 nM.

Source of the values: BindingDB's records for doi:10.1021/acs.jmedchem.9b00186 (Bristol-Myers Squibb Research & Development, 2019).
